Experimental data published in PMC10467532, “Design, synthesis, and biological evaluation of thiazole/thiadiazole carboxamide scaffold-based derivatives as potential c-Met kinase inhibitors for cancer treatment” (Journal of Enzyme Inhibition and Medicinal Chemistry, 2023).

Experiments:
[1] = molecular target: T1, c-Met (Homo sapiens, UniProt P08581); assay: In vitro c-Met enzymatic assay (HTRF); type: biochemical; conditions: for IC50: HTRF assay, mean ± SD, triplicate, read-out: IC50 against c-Met; for fold loss of c-Met inhibitory activity compared to 51w: ratio of c-Met IC50 to that of 51w
T1 construct: purchased Invitrogen (Waltham, MA)
T1 sequence (P08581 25-1390): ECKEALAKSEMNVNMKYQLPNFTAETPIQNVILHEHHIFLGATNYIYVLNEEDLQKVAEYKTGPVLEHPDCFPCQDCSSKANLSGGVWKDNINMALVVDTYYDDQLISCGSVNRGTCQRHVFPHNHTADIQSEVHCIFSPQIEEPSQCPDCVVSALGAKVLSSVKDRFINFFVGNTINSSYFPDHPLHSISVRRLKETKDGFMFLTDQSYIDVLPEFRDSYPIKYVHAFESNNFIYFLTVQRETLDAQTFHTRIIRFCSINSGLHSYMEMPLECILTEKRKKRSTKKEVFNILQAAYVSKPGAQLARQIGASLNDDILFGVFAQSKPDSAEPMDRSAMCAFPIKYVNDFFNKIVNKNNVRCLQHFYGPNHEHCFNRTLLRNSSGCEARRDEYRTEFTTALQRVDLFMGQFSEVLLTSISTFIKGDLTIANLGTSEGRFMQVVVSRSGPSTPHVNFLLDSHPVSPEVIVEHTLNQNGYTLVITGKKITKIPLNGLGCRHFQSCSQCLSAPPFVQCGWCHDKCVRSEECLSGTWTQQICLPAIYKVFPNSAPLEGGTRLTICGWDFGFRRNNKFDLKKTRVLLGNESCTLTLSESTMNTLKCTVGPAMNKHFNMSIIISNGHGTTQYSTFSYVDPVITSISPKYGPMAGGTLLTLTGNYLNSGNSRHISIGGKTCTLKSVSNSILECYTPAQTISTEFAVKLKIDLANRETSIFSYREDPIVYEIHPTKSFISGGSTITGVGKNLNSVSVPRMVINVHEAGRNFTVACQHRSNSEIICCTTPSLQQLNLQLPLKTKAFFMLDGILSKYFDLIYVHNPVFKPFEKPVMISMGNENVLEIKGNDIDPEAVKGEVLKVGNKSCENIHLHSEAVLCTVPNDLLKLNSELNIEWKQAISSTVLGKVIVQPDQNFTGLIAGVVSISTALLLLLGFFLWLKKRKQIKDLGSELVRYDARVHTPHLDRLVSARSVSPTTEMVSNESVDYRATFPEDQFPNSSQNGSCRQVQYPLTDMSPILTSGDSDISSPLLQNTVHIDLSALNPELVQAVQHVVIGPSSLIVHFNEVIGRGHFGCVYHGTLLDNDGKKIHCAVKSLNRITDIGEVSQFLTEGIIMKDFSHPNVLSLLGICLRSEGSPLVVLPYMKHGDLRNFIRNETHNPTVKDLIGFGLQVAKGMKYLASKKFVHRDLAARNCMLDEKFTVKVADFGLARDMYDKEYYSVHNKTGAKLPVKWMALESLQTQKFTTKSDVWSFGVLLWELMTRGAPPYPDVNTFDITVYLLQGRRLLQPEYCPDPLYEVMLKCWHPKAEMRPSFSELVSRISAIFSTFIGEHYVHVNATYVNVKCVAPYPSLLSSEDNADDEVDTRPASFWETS
Procedure: Inhibition of target compounds on c-Met kinase activity was measured by using the homogeneous time-resolved fluorescence (HTRF) assay.
The tyrosine kinases inhibitory activities of target compounds were evaluated in 384-well microtiter plates using purified kinases purchased from Invitrogen (Waltham, MA) by homogeneous time-resolved fluorescence (HTRF) assay. The HTRF KinEASE TK kit was performed according to the instructions. After the kinases and test compounds were incubated at 25–30 °C for 5 min, the kinase reactions were initiated by addition of 39 μL of kinase reaction buffer solution and incubated at 25–30 °C for 30 min. The reactions were quenched by addition 10 µL mixed detection solution. […] The inhibition rate (%) was calculated using the following equation: inhibition rate = [(activity of enzyme with tested compound – min)/(max – min)] × 100 (max: the enzyme activity in the presence of enzyme, substrates and cofactors; min: the enzyme activity in the presence of substrates, cofactors and in the absence of enzyme). IC50 value was calculated from the inhibition curve using GraphPad Prism 5.0 software (La Jolla, CA).

[2] = test system: A549; assay: MTT antiproliferative assay, A549; conditions: Homo sapiens, A549, 48 h, read-out: IC50 A549
Procedure: (§1) MTT assay was used to determine the cytotoxic activity of target compounds against different cell lines. […] Then, the cells were treated with five doses of test compounds (pre-dissolved in DMSO), and 0.1% DMSO was used as a negative control. […] The results expressed as IC50 were the average of three determinations calculated by using the Bacus Laboratories Incorporated Slide Scanner (Bliss) software.

[3] = test system: HT-29; assay: MTT antiproliferative assay, HT-29; conditions: Homo sapiens, HT-29, 48 h, read-out: IC50 HT-29
Procedure: as §1

[4] = test system: MKN-45; assay: MTT antiproliferative assay, MKN-45; conditions: Homo sapiens, MKN-45, 48 h, read-out: IC50 MKN-45
Procedure: as §1

[5] = test system: MDA-MB-231; assay: MTT antiproliferative assay, MDA-MB-231; conditions: Homo sapiens, MDA-MB-231, 48 h, read-out: IC50 MDA-MB-231
Procedure: as §1

[6] = test system: FHC; assay: MTT cytotoxicity assay, normal FHC cells; conditions: Homo sapiens, 48 h, read-out: IC50 FHC
Procedure: as §1

[7] = test system: HUVEC; assay: MTT cytotoxicity assay, normal HUVEC cells; conditions: Homo sapiens, 48 h, read-out: IC50 HUVEC
Procedure: as §1

Row | Compound | IC50 [1] [nM] | melting point [°C] | IC50 [2] [µM] | IC50 [3] [µM] | IC50 [4] [nM] | IC50 [5] [µM] | fold loss of c-Met inhibitory activity compared to 51w [1] [fold] | IC50 [6] [µM] | IC50 [7] [µM]
1 | COc1cc2nccc(Oc3ccc(NC(=O)c4nc(-c5ccccc5)ns4)cc3)c2cc1OC [Compound 51a, N-(4-((6,7-Dimethoxyquinolin-4-yl)oxy)phenyl)-3-phenyl-1,2,4-thiadiazole-5-carboxamide] | 56.6 ± 4.82 | 145 to 147 | 26.4 ± 1.24 | 24.4 ± 1.68 | 9250 ± 860 | > 50 |  | > 100 | > 100
2 | O=C(Nc1ccc(Oc2ccnc(Cl)c2)c(F)c1)c1nc(-c2cccc(F)c2)cs1 [Compound 51ab, N-(4-((2-Chloropyridin-4-yl)oxy)-3-fluorophenyl)-4-(3-fluorophenyl)thiazole-2-carboxamide] | 23.2 ± 2.16 | 189 to 191 | 6.02 ± 0.87 | 6.95 ± 0.82 | 1490 ± 630 | 10.1 ± 1.88 |  | 20.2 ± 3.62 | 12.7 ± 0.83
3 | O=C(Nc1ccc(Oc2ccnc(Cl)c2)c(F)c1)c1nc(-c2ccccc2F)cs1 [Compound 51ac, N-(4-((2-Chloropyridin-4-yl)oxy)-3-fluorophenyl)-4-(2-fluorophenyl)thiazole-2-carboxamide] | 18.5 ± 3.05 | 168 to 170 | 7.54 ± 0.62 | 9.53 ± 0.75 | 1940 ± 260 | 18.1 ± 2.14 |  | 31.3 ± 2.63 | 19.4 ± 0.83
4 | O=C(Nc1ccc(Oc2ccnc(Cl)c2)c(F)c1)c1nc(-c2cccc(Cl)c2)cs1 [Compound 51ae, 4-(3-Chlorophenyl)-N-(4-((2-chloropyridin-4-yl)oxy)-3-fluorophenyl)thiazole-2-carboxamide] | 23.4 ± 3.61 | 171 to 173 | 7.08 ± 0.95 | 9.62 ± 1.56 | 1950 ± 680 | 19.2 ± 2.35 |  | 24.5 ± 1.84 | 13.1 ± 0.95
5 | O=C(Nc1ccc(Oc2ccnc(Cl)c2)c(F)c1)c1nc(-c2ccc(Br)cc2)cs1 [Compound 51af, 4-(4-Bromophenyl)-N-(4-((2-chloropyridin-4-yl)oxy)-3-fluorophenyl)thiazole-2-carboxamide] | 19.2 ± 1.44 | 192 to 194 | 8.23 ± 1.42 | 11.7 ± 1.63 | 2060 ± 450 | 20.5 ± 3.65 |  | 21.6 ± 2.82 | 11.5 ± 0.83
6 | O=C(Nc1ccc(Oc2ccnc(Cl)c2)c(F)c1)c1nc(-c2ccc(C(F)(F)F)cc2)cs1 [Compound 51ag, N-(4-((2-Chloropyridin-4-yl)oxy)-3-fluorophenyl)-4-(4(trifluoromethyl)phenyl)thiazole-2-carboxamide] | 39.4 ± 5.25 | 212 to 214 | 12.4 ± 2.85 | 20.4 ± 3.02 | 5840 ± 1210 | 30.6 ± 2.64 |  |  | 43.2 ± 3.53
7 | O=C(Nc1ccc(Oc2ccnc(Cl)c2)c(F)c1)c1nc(-c2ccc3ccccc3c2)cs1 [Compound 51ai, N-(4-((2-Chloropyridin-4-yl)oxy)-3-fluorophenyl)-4-(naphthalen-2-yl)thiazole-2-carboxamide] | 61.4 ± 4.58 | 182 to 184 | 15.3 ± 2.81 | 21.5 ± 1.58 | 6120 ± 1380 | 30.3 ± 2.16 | 2.6 | > 100 | > 100
8 | O=C(Nc1ccc(Oc2ccnc(Cl)c2)c(F)c1)c1nc(-c2cccs2)cs1 [Compound 51aj, N-(4-((2-chloropyridin-4-yl)oxy)-3-fluorophenyl)-4-(thiophen-2-yl)thiazole-2-carboxamide] | 49.5 ± 5.36 | 184 to 186 | 11.5 ± 2.17 | 17.5 ± 2.44 | 4550 ± 910 | 25.9 ± 3.41 | 2.1 | > 100 | 52.3 ± 3.74
9 | COc1cc2nccc(Oc3ccc(NC(=O)c4nc(-c5ccc(F)cc5)cs4)cc3)c2cc1OC [Compound 51f, N-(4-((6,7-Dimethoxyquinolin-4-yl)oxy)phenyl)-4-(4-fluorophenyl)thiazole-2-carboxamide] | 29.1 ± 3.53 | 84 to 86 | 14.7 ± 3.27 | 22.4 ± 1.94 | 4950 ± 820 | 31.8 ± 2.56 |  |  | 45.5 ± 3.83
10 | COc1cc2nccc(Oc3ccc(NC(=O)c4nc(-c5ccccc5)cs4)cc3C)c2cc1OC [Compound 51n, N-(4-((6,7-Dimethoxyquinolin-4-yl)oxy)-3-methylphenyl)-4-phenylthiazole-2-carboxamide] | 45.6 ± 6.03 | 136 to 138 | 17.5 ± 2.25 | 24.4 ± 2.14 | 7210 ± 950 |  |  | > 100 | > 100
11 | COc1ccc(-c2csc(C(=O)Nc3ccc(Oc4ccnc(Cl)c4)c(F)c3)n2)cc1 [Compound 51y, N-(4-((2-Chloropyridin-4-yl)oxy)-3-fluorophenyl)-4-(4-methoxyphenyl)thiazole-2-carboxamide] | 36.7 ± 2.97 | 191 to 193 | 9.28 ± 1.85 | 14 ± 2.26 | 3220 ± 860 | 28.5 ± 2.35 |  |  | 32.4 ± 1.98

These reach a lower IC50 [1]. Values come first.

Row | IC50 [1] [nM] | melting point [°C] | IC50 [2] [µM] | IC50 [3] [µM] | IC50 [4] [nM] | IC50 [5] [µM] | fold loss of c-Met inhibitory activity compared to 51w [1] [fold] | Compound | IC50 [6] [µM] | IC50 [7] [µM]
12 | 17.8 ± 1.82 | 167 to 169 | 6.75 ± 0.55 | 8.04 ± 0.93 | 1740 ± 230 | 15.2 ± 1.46 |  | O=C(Nc1ccc(Oc2ccnc(Cl)c2)c(F)c1)c1nc(-c2ccc(Cl)cc2)cs1 [Compound 51ad, 4-(4-Chlorophenyl)-N-(4-((2-chloropyridin-4-yl)oxy)-3-fluorophenyl)thiazole-2-carboxamide] | 26.5 ± 1.28 | 18.5 ± 2.04
13 | 15.6 ± 2.43 | 150 to 152 | 4.83 ± 0.72 | 4.36 ± 0.38 | 950 ± 180 | 11.7 ± 1.39 |  | O=C(Nc1ccc(Oc2ccnc(Cl)c2)c(F)c1)c1nc(-c2ccc(F)cc2)cs1 [Compound 51aa, N-(4-((2-Chloropyridin-4-yl)oxy)-3-fluorophenyl)-4-(4-fluorophenyl)thiazole-2-carboxamide] | 24.6 ± 4.23 | 15.3 ± 2.16
14 | 9.26 ± 1.34 | 195 to 197 | 3.17 ± 0.51 | 2.78 ± 0.49 | 530 ± 420 | 7.29 ± 1.22 |  | O=C(Nc1ccc(Oc2ccnc(Cl)c2)c(F)c1)c1nc(-c2ccc(Cl)c(Cl)c2)cs1 [Compound 51ah, N-(4-((2-Chloropyridin-4-yl)oxy)-3-fluorophenyl)-4-(3,4-dichlorophenyl)thiazole-2-carboxamide] | 20.4 ± 1.86 | 12.4 ± 0.85
15 | 5.23 ± 0.74 | 170 to 172 | 2.26 ± 0.68 | 1.94 ± 0.65 | 350 ± 70 | 5.82 ± 0.73 |  | O=C(Nc1ccc(Oc2ccnc(Cl)c2)c(F)c1)c1nc(-c2ccc(F)c(F)c2)cs1 [Compound 51al, N-(4-((2-Chloropyridin-4-yl)oxy)-3-fluorophenyl)-4-(3,4-difluorophenyl)thiazole-2-carboxamide] | 10.2 ± 1.65 | 6.14 ± 0.75
16 | 3.89 ± 0.52 | 168 to 170 | 1.81 ± 0.34 | 1.56 ± 0.32 | 220 ± 40 | 4.24 ± 0.68 |  | O=C(Nc1ccc(Oc2ccnc(Cl)c2)c(F)c1)c1nc(-c2ccc(F)c(Cl)c2)cs1 [Compound 51ak, 4-(3-Chloro-4-fluorophenyl)-N-(4-((2-chloropyridin-4-yl)oxy)-3-fluorophenyl)thiazole-2-carboxamide] | 13.2 ± 0.84 | 8.52 ± 1.35
